Where no end group is shown, it is not given here.
Columns and labels:
[1] = test system: Staphylococcus aureus, group A Streptococcus, Escherichia coli, Pseudomonas aeruginosa, Candida albicans, Aspergillus niger, A. fumigates, Trichophyton rubrum; settings: gram-positive and gram-negative bacteria, yeasts, filamentous fungi; cited from earlier work
[2] = test system: colonic mucosa associated microbiota; assay: Colonic mucosa associated microbiota composition by Illumina 16S rRNA sequencing after intrarectal CTS; type: in vivo, C57BL/6 mice; settings: for Mean percentage of sequence in total bacterial population: CTS 1.5 mg/kg/day i.r. 6 days
Protocol: (§1) Male C57BL/6 mice (7-9 weeks old) were purchased from Charles River (Canada) and maintained in the animal care facility at the University of Manitoba. The experimental protocol was approved by the University of Manitoba Animal Ethics Committee (10-073) and the research was conducted according to the Canadian Guidelines for Animal Research. Two groups of 4 and 6 mice were studied, one receiving the vehicle solution and one receiving intra-rectal Infusion of CTS for 6 days.
(§2) Saline (0.9%) was injected in the control group. Mice were anaesthetized using Isoflurane (Abbott, Toronto, Canada).
(§3) Samples were collected 6 days post-treatment induction, after euthanasia under isoflurane (Abbot) anaesthesia. The macroscopic score was determined on the sacrifice day based on stool consistency, rectal prolapse and rectal and colonic bleeding. On the day of sacrifice, a 250 mg fecal sample and a portion of the colon were collected in individual collector tubes from each animal. All samples were preserved at −80° C. before use.
(§4) Colons were opened and 50 mg of scrapings were taken from the inside. Samples were homogenized at room temperature, and genomic DNA was extracted from 250 mg fecal mass using a ZR fecal DNA Kit (Zymo Research Corp., Orange, Calif.). DNA extraction was performed using a Qiagen DNeasy blood & tissue kit (Qiagen corp, Valencia, USA). Both DNA extraction kits have a bead-beating step to lyse microbial cells. To match the concentration requirement for pyrosequencing, DNA quantity was determined using a Beckman DU/800 spectrophotometer (Beckman Coulter, Inc., Fullerton, Calif.). Genomic DNA was normalized to achieve a concentration of 20 ng/μL, and quality-checked by 16S rRNA gene using PCR amplification of 27F (5′-[…]-3′, SEQ ID NO:2) and 342R (5′-[…]-3′, SEQ ID NO:3)^58, 59. Amplicons were verified by agarose gel electrophoresis.
(§5) Library construction and Illumina sequencing were performed as described by Derakhshani et al.^60. Briefly, the […] region of the 16S rRNA gene was targeted for PCR amplification using modified F515/R806 primers^61. A reverse PCR primer was Indexed with 12-base Golay barcodes to allow for sample multiplexing. The PCR reaction for each sample was performed in duplicate and contained 1.0 μl of pre-normalized DNA, 1.0 μl each of forward and reverse primers (10 μM), 12 μl HPLC grade water (Fisher Scientific, ON, Canada) and 10 μl 5 Prime Hot MasterMix® (5 Prime, Inc., Gaithersburg, USA). Reactions consisted of an initial denaturing step at 94° C. for 3 min followed by 35 amplification cycles at 94° C. for 45 sec, 50° C. for 60 sec and 72° C. for 90 sec; this was followed by an extension step at 72° C. for 10 min in an Eppendorf Mastercycler® (Eppendorf, Hamburg, Germany). PCR products were then purified using a ZR-96 DNA Clean-up Kit™ (ZYMO Research, CA, USA) to remove primers, dNTPs and reaction components. The V4 library was then generated by pooling 200 ng of each sample, and quantified using Picogreen dsDNA (Invitrogen, NY, USA). This was followed by multiple dilution steps using pre-chilled hybridization buffer (HT1) (Illumina, CA, USA) to bring the pooled ampilcons to a final concentration of […], and the concentration was measured through optical density using a Qubit® 2.0 Fluorometer (Life technologies, ON, Canada). […] The 150 paired-end sequencing reaction was performed on a MISeq platform (Illumina, CA, USA) at the Gut Microbiome and Large Animal Biosecurity Laboratories, Department of Animal Science, University of Manitoba, Canada.
(§6) Bioinformatics analyses were performed as described by Derakhshani et al.^60. Briefly, the PANDAseq assembler^62 was used to merge overlapping paired-end Illumina fastq files. All the sequences with mismatches or ambiguous calls in the overlapping region were discarded. The output fastq file was then analyzed using downstream computational pipelines in the open source software package QIIME^63.

fecal microbiota = assay: Fecal microbiota composition by Illumina 16S rRNA sequencing after intrarectal CTS; type: in vivo, C57BL/6 mice; settings: for Mean percentage of sequence in total bacterial population: CTS 1.5 mg/kg/day i.r. 6 days
Protocol: as §1, §2, §3, §4, §5, §6

induced colitis = settings: Rabbi et al. 2014; cited from earlier work
[3] = colonic mucosa associated samples
[4] = colonic mucosa associated samples, R^2=0.32, Q^2=0.242
[5] = fecal samples, R^2=0.94, Q^2=0.57

Sequence: SSMKLSFRARAYGFRGPGPQL [CTS]
- Antimicrobial activity in vitro [1]: effective
- Impact on Chao1, ACE, Shanon and Simpson indices of α-diversity ([2]; colonic mucosa associated bacterial community, vs control): no significant impact
- Effect on Verrucomicrobia [2, 3]: lowered
- Impact on relative abundance of bacterial phyla [2, 3]: no significant impact
- β-diversity (PERMANOVA): bacterial community vs controls [2, 3]: no significant change
- PLS-DA association with CTS treatment: Bacteroidales, Chitinophagaceae, Clostridlaceae, Clostridiales, Coriobacteriaceae, Pseudomonadaceae, Rikenellaceae, Ruminococcaceae, YS2 [2, 4]: positive association
- PLS-DA association with CTS treatment: genera Bifidobacterium and Stenotrophomonas [2, 4]: positive association
- Mean percentage of sequence in total bacterial population ([2]; phylum Acidobacteria, colonic mucosa associated samples): 0.03339%
- Mean percentage of sequence in total bacterial population ([2]; phylum Actinobacteria, colonic mucosa associated samples): 0.0724%
- Mean percentage of sequence in total bacterial population ([2]; phylum Armatimonadetes, colonic mucosa associated samples): 0.000879%
- Mean percentage of sequence in total bacterial population ([2]; phylum Bacteroidetes, colonic mucosa associated samples): 21.0435%
- Mean percentage of sequence in total bacterial population ([2]; phylum Chlamydiae, colonic mucosa associated samples): 0.00306%
- Mean percentage of sequence in total bacterial population ([2]; phylum Chlorobi, colonic mucosa associated samples): 0.002098%
- Mean percentage of sequence in total bacterial population ([2]; phylum Cyanobacteria, colonic mucosa associated samples): 0.1752%
- Mean percentage of sequence in total bacterial population ([2]; phylum Deferribacteres, colonic mucosa associated samples): 5.95%
- Mean percentage of sequence in total bacterial population ([2]; phylum Fibrobacteres, colonic mucosa associated samples): 0.01378%
- Mean percentage of sequence in total bacterial population ([2]; phylum Firmicutes, colonic mucosa associated samples): 12.52%
- Mean percentage of sequence in total bacterial population ([2]; phylum Lentisphaerae, colonic mucosa associated samples): 0.00457%
- Mean percentage of sequence in total bacterial population ([2]; phylum OD1, colonic mucosa associated samples): 0.004988%
- Mean percentage of sequence in total bacterial population ([2]; phylum OP3, colonic mucosa associated samples): 0.001604%
- Mean percentage of sequence in total bacterial population ([2]; phylum Planctomycetes, colonic mucosa associated samples): 0.004664%
- Mean percentage of sequence in total bacterial population ([2]; phylum Proteobacteria, colonic mucosa associated samples): 59.17%
- Mean percentage of sequence in total bacterial population ([2]; phylum Spirochaetes, colonic mucosa associated samples): 0.08226%
- Mean percentage of sequence in total bacterial population ([2]; phylum TM7, colonic mucosa associated samples): 0.007409%
- Mean percentage of sequence in total bacterial population ([2]; phylum Tenericutes, colonic mucosa associated samples): 0.3714%
- Mean percentage of sequence in total bacterial population ([2]; phylum Unclassified, colonic mucosa associated samples): 0.2915%
- Mean percentage of sequence in total bacterial population ([2]; phylum Verrucomicrobia, colonic mucosa associated samples): 0.1428%
- E. coli levels in the gut (fecal microbiota; CTS administration in vivo): not affected
- S. aureus levels in the gut (fecal microbiota; CTS administration in vivo): not affected
- Impact on Chao1, ACE, Shanon and Simpson indices of α-diversity (fecal microbiota; fecal bacterial community, vs control): no significant impact
- Effect on Verrucomicrobia (fecal microbiota; fecal samples): lowered
- β-diversity (unweighted UniFrac, PERMANOVA): bacterial community vs controls (fecal microbiota; fecal samples, P<0.05): clustered separately
- PLS-DA association with CTS treatment: Adlercreutzia, Allobaculum, Bacteroidaceae (Family), Clostridia (Class), Ruminococcaceae (Family) (fecal microbiota; [5]): negative association
- PLS-DA association with CTS treatment: Alpharoteobacteria (Class), Bacteroidales (Order), RF32 (Order), mitochondria (Family), YS2 (Order) (fecal microbiota; [5]): positive association
- PLS-DA association with CTS treatment: genera Prevotella, Bacteroides Ovatus, Bacteroides, Parabacteroides distarosis, Parabacteroides and Dorea (fecal microbiota; [5]): positively associated
- Change of Firmicutes population vs control (fecal microbiota; feces, P<0.001): significantly decreased
- Change of relative abundance of Bacteroidetes vs control (fecal microbiota; feces, P<0.05): significantly increased
- Prevotella, Bacteroides, and Parabacteroides populations (fecal microbiota; feces, lower taxonomical level): significant increase
- Mean percentage of sequence in total bacterial population (fecal microbiota; phylum Actinobacteria, fecal samples): 0.1877%
- Mean percentage of sequence in total bacterial population (fecal microbiota; phylum Bacteroidetes, fecal samples): 74%
- Mean percentage of sequence in total bacterial population (fecal microbiota; phylum Cyanobacteria, fecal samples): 0.152%
- Mean percentage of sequence in total bacterial population (fecal microbiota; phylum Deferribacteres, fecal samples): 1.144%
- Mean percentage of sequence in total bacterial population (fecal microbiota; phylum Fibrobacteres, fecal samples): 0.000541%
- Mean percentage of sequence in total bacterial population (fecal microbiota; phylum Firmicutes, fecal samples): 20.56%
- Mean percentage of sequence in total bacterial population (fecal microbiota; phylum Proteobacteria, fecal samples): 2.873%
- Mean percentage of sequence in total bacterial population (fecal microbiota; phylum TM7, fecal samples): 0.003098%
- Mean percentage of sequence in total bacterial population (fecal microbiota; phylum Tenericutes, fecal samples): 0.4046%
- Mean percentage of sequence in total bacterial population (fecal microbiota; phylum Unclassified, fecal samples): 0.4142%
- Mean percentage of sequence in total bacterial population (fecal microbiota; phylum Verrucomicrobia, fecal samples): 0.266%
- Severity of induced colitis (induced colitis): less severe induced colitis
